Tests used:
[1] = target: T1, acetylcholinesterase (AChE) (Rattus norvegicus, UniProt P37136); assay: In vitro inhibition of AChE (cholinesterase assay, Ellman method); assay type: biochemical
T1 construct: from tissue; host or cells: rat brain cortex
T1 sequence (P37136 32-614): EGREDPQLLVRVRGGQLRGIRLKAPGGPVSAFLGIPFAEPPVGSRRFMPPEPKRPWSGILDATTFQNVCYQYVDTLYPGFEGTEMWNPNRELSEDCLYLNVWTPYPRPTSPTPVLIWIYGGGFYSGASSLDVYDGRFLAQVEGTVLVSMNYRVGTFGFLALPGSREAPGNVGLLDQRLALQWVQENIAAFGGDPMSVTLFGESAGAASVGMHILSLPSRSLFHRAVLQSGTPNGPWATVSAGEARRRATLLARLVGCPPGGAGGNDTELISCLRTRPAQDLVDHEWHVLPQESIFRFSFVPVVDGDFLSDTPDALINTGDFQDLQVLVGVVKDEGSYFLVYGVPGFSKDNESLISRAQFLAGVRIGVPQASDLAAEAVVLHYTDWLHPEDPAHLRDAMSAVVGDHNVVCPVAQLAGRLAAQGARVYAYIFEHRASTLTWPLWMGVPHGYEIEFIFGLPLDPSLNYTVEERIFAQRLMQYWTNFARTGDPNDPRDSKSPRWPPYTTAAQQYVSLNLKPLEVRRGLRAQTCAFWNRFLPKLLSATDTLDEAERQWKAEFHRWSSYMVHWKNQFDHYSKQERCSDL
Description: The in vitro inhibition of the enzymes acetylcholinesterase (AChE) and butyrylcholinesterase (BChE) were assessed. BChE, like AChE, breaks down acetylcholine (ACh) but is found in plasma and other organs such as the liver, skin and gastrointestinal tract.
The enzymes, AChE and BChE, used in the inhibition studies were prepared from the cortex and serum of decapitated rats, respectively.

[2] = target: T2, butyrylcholinesterase (BChE) (Rattus norvegicus, UniProt Q9JKC1); assay: biochemical
T2 construct: from tissue; host or cells: rat serum
T2 sequence (Q9JKC1 24-597): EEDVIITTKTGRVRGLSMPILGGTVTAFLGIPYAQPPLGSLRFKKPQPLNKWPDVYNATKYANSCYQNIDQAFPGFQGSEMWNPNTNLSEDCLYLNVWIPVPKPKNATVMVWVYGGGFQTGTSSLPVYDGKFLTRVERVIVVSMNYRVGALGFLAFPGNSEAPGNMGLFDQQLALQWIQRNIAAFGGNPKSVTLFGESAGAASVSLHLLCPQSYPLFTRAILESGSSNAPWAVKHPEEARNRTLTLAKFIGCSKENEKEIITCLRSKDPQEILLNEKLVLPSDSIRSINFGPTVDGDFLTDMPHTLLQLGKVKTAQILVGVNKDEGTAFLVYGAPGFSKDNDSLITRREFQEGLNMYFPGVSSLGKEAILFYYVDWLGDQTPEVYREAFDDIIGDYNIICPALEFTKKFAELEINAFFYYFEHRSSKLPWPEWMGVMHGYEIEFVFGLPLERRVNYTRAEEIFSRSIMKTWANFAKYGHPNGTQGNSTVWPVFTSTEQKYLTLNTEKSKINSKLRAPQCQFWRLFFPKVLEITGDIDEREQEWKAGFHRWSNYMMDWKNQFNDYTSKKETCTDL

[3] = system: scopolamine-induced memory impaired rats; assay: Morris water maze, scopolamine-induced memory impairment; assay type: in vivo, rat; settings: tacrine 1.5 mg/kg, scopolamine 0.1 mg/kg i.p.
Description: The Morris water maze consists of a water pool with a hidden, submerged escape platform. The rats must learn, over a period of consecutive days, the location of the platform using either contextual or local cues. The time taken to locate the hidden platform (escape latency) is a measure of the animal's cognitive abilities.
(§1) Scopolamine (0.1 mg/kg) was first i.p. administered to young adult rats to impair their memories. Scopolamine-induced memory impaired rats were then orally administered one of three different doses of compound B (0.025, 0.050, or 0.100 mg/kg) and subjected to the Morris water maze over a period of 4 days. On each day, the time taken for the rats to detect the hidden platform in the water maze was measured, in seconds.
as §1, with “C (0.1, 0.2,” for “B (0.025, 0.050,”, “0.4” for “0.100”
as §1, with “A (0.1, 0.2,” for “B (0.025, 0.050,”, “0.4” for “0.100”
A spatial bias (% of total distance swum in the training quadrant during spatial probe trial) for the region of the apparatus where the platform was positioned during training was also measured for compounds B and C.
The spatial bias for the region of the testing apparatus where the hidden platform was positioned during training was measured. […] Tacrine (THA) was included for comparison purposes.

| Structure (SMILES) | Selectivity AchE* ([1]; IC50 (BChE)/IC50 (AChE)) | IC50 ([1]; enzyme prepared from rat cortex) [nM] | IC50 [2] [nM] | escape latency, compared with the novel compound [3] |
| --- | --- | --- | --- | --- |
| O=c1ccc2c([nH]1)CCCC2NCCCCCCCCNc1c2c(nc3ccccc13)CCCC2 (stereo not shown) [Compound D] | 31.52 | 13.6 ± 1.76 | 430 ± 46.7 |  |
| Nc1c2c(nc3ccccc13)CCCC2 [Tacrine, reference compound] |  |  |  | less effective in shortening escape latency |

Source: patent publication US7605265B2, “Heterodimers and methods of using them” (priority 2007, dated 2009)
